CCOc1ccccc1C(N)=O
solubility (mole fraction)
Settings	288.15 K	293.15 K	298.15 K	303.15 K	308.15 K	313.15 K	318.15 K	323.15 K
in acetonitrile	0.00524	0.0075	0.0101	0.0132	0.0176	0.0231	0.0302	0.0398
in ethanol	0.011	0.0137	0.0171	0.0211	0.0265	0.0327	0.0402	0.0486
in ethyl acetate	0.00336	0.00459	0.00639	0.00835	0.0112	0.0147	0.0196	0.0251
in isobutanol	0.00816	0.00984	0.0126	0.0162	0.0208	0.0273	0.0354	0.0454
in methanol	0.0154	0.018	0.0225	0.027	0.0328	0.0402	0.0492	0.0597
in n-propanol	0.00832	0.0113	0.0142	0.0179	0.0227	0.0301	0.0389	0.0502
